{"source": "patent US20210207099A1", "about": "“METHODS AND COMPOSITIONS FOR GENERATING CELLS OF ENDODERMAL LINEAGE AND BETA CELLS AND USES THEREOF” (priority 2018, published 2021)", "format_in_all_cases": "cell-based, human", "key": {"[1]": {"tested_on": "HUES8 cells, intestinal differentiation protocol", "assay": "Intestine differentiation with cytoskeletal compounds", "conditions": "1 μM for the first 24 hours of stage 2", "method": "For differentiation to other endodermal lineages, HUES8 stem cells were cultured and passaged normally. Differentiations were initiated 24 hours after seeding 24-well plates at 0.521×10^6 cells/cm^2. Protocols for exocrine pancreas, intestine, and liver were adapted, from literature. Either latrunculin A or nocodazole were added as indicated in each protocol. All three differentiation protocols used the same stage 1 to induce endoderm. Stage 1 (4 days): BE1 media+100 ng/mL Activin A+3 μM CHIR99021 for the first 24 hours, followed with 3 days of BE1 containing 100 ng/mL Activin A only.\nIntestine Differentiation: Stage 2 (4 days): BE2 media+3 μM CHIR99021+500 ng/mL FGF4 (R&D Systems, 235-F4). Either 1 μM latrunculin A was added for the first 24 hours of this stage, or 1 μM nocodazole was added for the entirety of stage 2. Stage 3 (7 days): BE3 media+500 ng/mL R-spondin1 (R&D Systems, 4645-RS)+100 ng/mL EGF (R&D Systems, 236-EG)+200 nM LDN193189."}, "plated stage 4 cells": {"tested_on": "plated stage 4 cells", "assay": "qRT-PCR and immunostaining of plated stage 4 cells treated with cytoskeletal modifying compounds", "text": "For experiments investigating the effects of plating pancreatic progenitors, cells were differentiated with the suspension protocol for stages 1-3. At the end of stage 3, clusters were single cell dispersed with TrypLE and plated onto tissue culture plates coated with various ECM proteins at 0.625×10^6 cells/cm^2. Differentiation media for the remainder of this hybrid protocol were the same as for the suspension protocol with the exception that Y-27632 and Activin A were omitted on days 2-5 of stage 4. Additional compounds were added as indicated in each experiment: 1 μM latrunculin A (Cayman Chemical, 10010630), 1 μM latrunculin B (Cayman Chemical, 10010631), 1 μM cytochalasin D (MilliporeSigma, C2618), 1 μM jasplakinolide (Cayman Chemical, 11705), 10 μM blebbistatin (MilliporeSigma, 203389), 1 μM nocodazole (Cayman Chemical, 13857), 1 μM Y-15 (Cayman Chemical, 14485), 10 μM Y-27632, and 10 μM GDC-0994 (Selleckchem, S7554). A variety of ECM coatings were initially tested with this plating methodology, including collagen I (Corning, 354249), collagen IV (Corning, 354245), fibronectin (Gibco, 33016-015), vitronectin (Gibco, A14700), matrigel (Corning, 356230), gelatin (Fisher, G7-500), and laminins 111, 121, 211, 221, 411, 421, 511, and 521 (Biolamina, LNKT-0201). All subsequent experiments with this hybrid protocol were performed on collagen I.\nBrightfield images were taken with a Leica DMi1 inverted light microscope, and fluorescence images were captured with a Nikon A1Rsi confocal microscope. For immunostaining, cells were fixed with 4% paraformaldehyde (PFA) at room temperature for 30 minutes. They were then blocked and permeabilized for 45 minutes at room temperature with an immunocytochemistry (ICC) solution consisting of 0.1% triton X (Acros Organics, 327371000) and 5% donkey serum (Jackson Immunoresearch, 017000-121) in PBS (Corning, 21-040-CV). Samples were then incubated with primary antibodies diluted in ICC solution overnight at 4° C., washed with ICC, incubated with secondary antibodies diluted in ICC for 2 hours at room temperature, and stained with DAPI for 15 minutes at room temperature. For histological sectioning, whole SC-β cell clusters generated with the planar protocol and mouse kidneys containing transplanted cells were fixed overnight with 4% PFA at 4° C. The in vitro clusters were also embedded in Histogel (Thermo Scientific, hg-4000-012). These samples were then paraffin-embedded and sectioned by the Division of Comparative Medicine (DCM) Research Animal Diagnostic Laboratory Core at Washington University in St. Louis. Paraffin was removed from sectioned samples with Histoclear (Thermo Scientific, C78-2-G), and antigen retrieval was carried out in a pressure cooker (Proteogenix, 2100 Retriever) with 0.05 M EDTA (Ambion, AM9261). Slides were blocked and permeabilized with ICC solution for 45 minutes, incubated with primary antibodies in ICC solution overnight at 4° C., and incubated with secondary antibodies for 2 hours at room temperature. Slides were then sealed with DAPI Fluoromount-G (SouthernBiotech, 0100-20).\nRNA was extracted from either whole clusters or cells directly on the plate with the RNeasy Mini Kit (Qiagen, 74016). Samples were treated with a DNAse kit (Qiagen, 79254) during extraction. The High Capacity cDNA Reverse Transcriptase Kit (Applied Biosystems, 4368814) was used to synthesize cDNA on a thermocycler (Applied Biosystems, A37028). The PowerUp SYBR Green Master Mix (Applied Biosystems, A25741) was used on a StepOnePlus (Applied Biosystems), and real time PCR results were analyzed using a ΔΔCt methodology. TBP and GUSB were both used as housekeeping genes. Primer sequences were as follows."}, "[2]": {"tested_on": "plated pancreatic progenitors", "assay": "Single-cell RNA sequencing of plated pancreatic progenitors treated throughout stage 4", "conditions": "0.5 μM latrunculin A throughout stage 4", "method": "Cells generated with the suspension protocol were single-cell dispersed with TrypLE from clusters at the end of stage 3 and seeded onto collagen 1 coated 24-well plates at 0.625×10^6 cells/cm^2. Either 0.5 μM latrunculin A or 5 μM nocodazole were added throughout the entirety of stage 4. At the end of stage 4, cells were single-cell dispersed, suspended in DMEM, and submitted to the Washington University Genome Technology Access Center. Library preparation was done using the Chromium Single Cell 3′ Library and Gel Bead Kit v2 (10× Genomics, 120237). Briefly, single cells were isolated in emulsions using a microfluidic platform, and each single cell emulsion was barcoded with a unique set of oligonucleotides. The GemCode Platform was used to carry out reverse transcription within each single cell emulsion, which was amplified to construct a library. The libraries were sequenced with paired-end reads of 26×98 primerbp using the Illumina HiSeq2500.\nSeurat v2.0 was used to perform single cell RNA analyses. Duplicate cells and cells with high mitochondrial gene expression were filtered out using FilterCells (>9000 total genes and >5% mitochondrial genes for Untreated Control, >6000 genes and >6% mitochondrial genes for latrunculin A, >12000 genes and >4% mitochondrial genes for nocodazole). Each data set was normalized using global-scaling normalization. FindVariableGenes identified and removed outlier genes using scaled z-score dispersion. The datasets were then combined and a canonical correlation analysis (CCA) was performed with RunMultiCCA. AlignSubspace was used to align the CCA subspaces and generated a new dimension reduction for integrated analysis. Unsupervised TSNE plots were generated using RunTSNE, and the resulting clusters were defined and labeled using FindMarkers. VInPlot (Violin plots) and FeaturePlot (tsne plots) were used to visualize differences in gene expressions across each cluster and conditions."}}}
{"smiles": "C/C1=C/C(=O)O[C@@H]2C[C@@H](CC[C@H](C)/C=C\\C=C\\CC1)O[C@@](O)([C@@H]1CSC(=O)N1)C2", "note": "[latrunculin A]", "values": [{"measurement": "markers of intestinal stem cells and Paneth cells", "setting": "[1]", "value": "greatly increased markers intestinal stem cells as well as Paneth cells"}, {"measurement": "NEUROG3+ and NKX6-1+ cells by immunostaining", "setting": "plated stage 4 cells; 1 μM, plated cells at the end of stage 4", "value": "increases NEUROG3+ and decreases NKX6-1+ cells"}, {"measurement": "dose response of NEUROG3 expression", "setting": "plated stage 4 cells; added during stage 4, qRT-PCR", "value": "highly dose-dependent"}, {"measurement": "expression of NEUROG3 and downstream targets NKX2.2 and NEUROD1", "setting": "plated stage 4 cells; compound screen, plated stage 4 cells, qRT-PCR", "value": "greatly increased expression of NEUROG3"}, {"measurement": "NKX6-1 expression", "setting": "plated stage 4 cells; latrunculin treatment during stage 4", "value": "followed the reverse trend as NEUROG3"}, {"measurement": "percentage of cells in the NKX6-1+ population (pancreatic progenitor 2)", "setting": "[2]", "value": 2.5, "unit": "%"}, {"measurement": "percentage of cells with endocrine induction", "setting": "[2]", "value": 44.7, "unit": "%"}]}
